Structures are written as SMILES.

The subject of the experiment is mice. Nature of the experiment: In vivo delivery of FLuc-circ-RNA lipid nanoparticles in mice (IVIS imaging). Conditions: for delivery efficiencies on change from mRNA to circular RNA: statement on Table 3, circular RNA LNP vs mRNA LNP; for IVIS: FLuc-circRNA LNP, IV. As to the method: 8.2 Investigation of the Delivery Efficacy of Nucleic Acid Lipid Nanoparticles for FLuc-Circ-mRNA in Mice
Lipid nanoparticles loaded with nucleic acid drugs were prepared according to step 2, replacing FLuc-mRNA with FLuc-circ-RNA (Shanghai Zhiwei Technology Development Co., Ltd.). After formulation, the nanoparticles were administered via intramuscular injection (into the quadriceps femoris muscle of mice), intravenous injection (into the tail vein of mice), intraperitoneal injection, or subcutaneous injection (subcutaneously on the back). Approximately 75 μL was injected per mouse, with a total of 3 mice per group. In vivo imaging (PerkinElmer, IVIS Lumina III) was performed after a certain period of time. Ten to fifteen minutes before imaging, 200 μL of a 15 mg/mL D-Luciferin working solution was injected intraperitoneally, followed by imaging analysis using the in vivo imaging system.

`CCCCCCC(CCCCCC)C(=O)NCCOC(=O)C(O)CN(CCO)CCCN(CC(O)C(=O)OCCNC(=O)C(CCCCCC)CCCCCC)CC(O)C(=O)OCCNC(=O)C(CCCCCC)CCCCCC` (stereo not shown) [Compound L0711]: the “delivery efficiencies on change from mRNA to circular RNA” value (“delivery efficiencies on change” for short) was “further increased the delivery efficiencies”.
Still for that read-out and setting: then `CCCCCCCCC(CCCCCC)C(=O)NCCOC(=O)C(O)CN(CCO)CCCN(CC(O)C(=O)OCCNC(=O)C(CCCCCC)CCCCCCCC)CC(O)C(=O)OCCNC(=O)C(CCCCCC)CCCCCCCC` (stereo not shown) [Compound L0714], with “further increased the delivery efficiencies”.
As for `CCCCCCC(CCCCCC)C(=O)OCCCCCCNC(=O)C(O)CN(CCO)CCCN(CC(O)C(=O)NCCCCCCOC(=O)C(CCCCCC)CCCCCC)CC(O)C(=O)NCCCCCCOC(=O)C(CCCCCC)CCCCCC` (stereo not shown) [Compound L0710], the “delivery efficiencies on change” value is listed as “further increased the delivery efficiencies”. The compound further returned an IVIS (organ liver) of 3.07E+08. The compound also showed an IVIS (organ lung) of 4.78E+06. For the same compound, the IVIS (organ spleen) was found to be 9.97E+07.
Take `CCCCCCOC(C)OCCCCCCOC(=O)C(O)CN(CCO)CCCN(CC(O)C(=O)OCCCCCCOC(C)OCCCCCC)CC(O)C(=O)OCCCCCCOC(C)OCCCCCC` (stereo not shown) [Compound L0692]: the “delivery efficiencies on change” value is on record as “further increased the delivery efficiencies”. The IVIS (organ liver) was determined as 3.34E+06. Under “organ lung”, the IVIS is reported as 8.55E+04. For the setting “organ spleen”, the IVIS was 2.64E+06.
